Experimental data taken from ChEMBL document CHEMBL1122672, “Substituent branching in phenethylamine-type hallucinogens: a comparison of 1-[2,5-dimethoxy-4-(2-butyl)phenyl]-2-aminopropane and 1-[2,5-dimethoxy-4-(2-methylpropyl)phenyl]-2-aminopropane” (1984).

Tests used:
Rattus norvegicus [1] = species on record: Rattus norvegicus; test: Compound was evaluated for the drug discrimination assay and the ED50 (potency) was determined in rats; format: functional
Rattus norvegicus [2] = species on record: Rattus norvegicus; test: Compound was evaluated for the drug discrimination assay and the highest percent of LSD correct responses were determined in rats; format: functional

| SMILES | ED50 (Rattus norvegicus [1]) | LSD (Rattus norvegicus [2]) |
| --- | --- | --- |
| CCC(C)c1cc(OC)c(CC(C)N)cc1OC.Cl (stereo not drawn) | 1.8 mg/kg | 70% |
| COc1cc(CC(C)N)c(OC)cc1CC(C)C.Cl (stereo not drawn) | 0.536 mg/kg | 95% |
| COc1cc(CC(C)N)c(OC)cc1C (stereo not drawn) [DOM] | 0.148 mg/kg | 99% |
| CCN(CC)C(=O)[C@@H]1C=C2c3cccc4[nH]cc(c34)C[C@H]2N(C)C1 [LYSERGIDE] | 0.0077 mg/kg | 100% |
